Assay results as given in paper PMC2397535 (Breast Cancer Research : BCR, 2008).
Like-named read-outs stand apart in the source and are kept apart here. Marks after values point to notes of the source that are not given here.

Columns and labels:
MAXF 401 = experiment: clonogenic (soft agar colony formation) assay, primary breast tumor; type: cell-based, human
MAXF 1322 = experiment: as above; type: cell-based, human
MAXF 574 = experiment: as above; type: cell-based, human
BT20 = experiment: antiproliferative effect (GI50), breast cancer cell line; type: cell-based; conditions: Homo sapiens, BT-20
MDA-MB-468 = experiment: as above; type: cell-based; conditions: Homo sapiens
MDA-MB-157 = experiment: as above; type: cell-based; conditions: Homo sapiens
phospho-AKT (Ser473) = experiment: AKT phosphorylation in BT-474 xenografts (Western blot); type: in vivo, mice
Experimental: To assess total levels of AKT, phosphorylated AKT, β-tubulin, and ERBB2 in the cell extracts, 20 to 30 μg of total protein was resolved by the appropriate-percentage SDS-PAGE. The following antibodies were used for immunoblotting: anti-AKT (cat. no. 9272, rabbit polyclonal; Cell Signaling Technology, Inc.), anti-phospho-AKT (Ser473) (cat. no. 9271, rabbit polyclonal; Cell Signaling Technology, Inc.), anti-β-tubulin (cat. no. T 4026, mouse monoclonal, clone Tub2.1; Sigma-Aldrich, St. Louis, MO, USA), and anti-ERBB2 (cat. no. 28-0004, rabbit polyclonal; Zymed Laboratories Inc., now part of Invitrogen Corporation, Carlsbad, CA, USA). Bound antibodies on PVDF immunoblots were detected by Amersham ECL (Amersham, now part of GE Healthcare, Little Chalfont, Buckinghamshire, UK) or infrared fluorescence detection (LI-COR Biosciences, Lincoln, NE, USA).
(§1) Invasive procedures were performed under Forene anesthesia. […] The animals were fed food and water ad libitum.

HSP70 = HSP70 induction in BT-474 xenografts (immunohistochemistry); type: in vivo, mice; conditions: single 50 mg/kg dose
Experimental: Formalin-fixed paraffin-embedded tissue sections were stained using the Ventana Discovery System (Ventana Medical Systems, Inc., Tucson, AZ, USA). Deparaffinization of tissue sections and heat-induced epitope retrieval using Standard Cell Conditioning Solution 1 (Ventana Medical Systems, Inc.) were performed directly on the System. A rabbit anti-human ERBB2 (HER2) monoclonal antibody (Lab Vision Corporation, Fremont, CA, USA) and a mouse anti-human HSP70 (Assay Designs, Inc.) were prepared in Dako diluent (Dako North America, Inc., Carpinteria, CA, USA) and used at concentrations of 2 ug/mL for 32 minutes and 10 ug/mL for 60 minutes, respectively. For HSP70 staining, slides were incubated with a biotin-labeled anti-mouse IgG1 (Research Diagnostics, Inc., now known as Fitzgerald Industries International, Concord, MA, USA) at a concentration of 1.25 ug/mL diluted in M.O.M. (Mouse-on-Mouse) (Vector Laboratories, Peterborough, UK). Detection using a 3,3'-diaminobenzadine reaction was performed on the section by using the Ventana OmniMAP DAB for the ERBB2 antibody and the Ventana DAB Map reagent for the HSP70 antibody (Ventana Medical Systems, Inc.). Each tissue section was subsequently counterstained with hematoxylin. To ensure antibody specificity, consecutive tissue sections were incubated with normal isotype-matched immunoglobulins (rabbit IgG; Jackson ImmunoResearch Laboratories, Inc., West Grove, PA, USA, and mouse IgG1; Lab Vision Corporation) used at concentrations equivalent to Her2 and HSP70 antibodies. Stained tissue sections were quantified using the Aperio Digital Pathology System (Aperio Technologies, Inc., Vista, CA, USA).
as §1

BT-474 = experiment: antiproliferative effect (GI50), breast cancer cell line; type: cell-based; conditions: Homo sapiens
[1] = tolerability (body weight, survival) in BT-474 tumor-bearing nude mice; type: in vivo
Experimental: as §1
(§2) Tumor growth and body weights were monitored at regular intervals. The xenograft tumor sizes were measured manually with calipers, and the tumor volume was estimated using the formula (w × l × h × π/6), where width (w), height (h), and length (l) are the three largest diameters.
(§3) When applicable, results are presented as mean ± standard error of the mean. Tumor and body weight data were analyzed by analysis of variance (ANOVA) with the post hoc Dunnett test for comparison of treatment versus control groups. The post hoc Tukey test was used for intragroup comparison. Statistical analysis was performed using GraphPad Prism 5 (GraphPad Software, Inc., San Diego, CA, USA). As a measure of efficacy, the %T/C value is calculated at the end of the experiment according to (Δtumor volumetreated/Δtumor volumecontrol) × 100, where Δtumor volumes represent the mean tumor volume on the evaluation day minus the mean tumor volume at the start of the experiment.

HSP90α = conditions: read-out: IC50 (median inhibition concentration); cited from earlier work
MCF-7 = experiment: antiproliferative effect (GI50), breast cancer cell line; type: cell-based; conditions: Homo sapiens, MCF7
SkBr3 = experiment: as above; type: cell-based; conditions: Homo sapiens, SK-BR-3
[2] = test system: panel of human breast cancer cell lines; experiment: antiproliferative effect, panel of seven breast cancer cell lines (summary values); type: cell-based
[3] = test system: BT-474 breast cancer xenograft; experiment: antitumor effect in BT-474 breast cancer xenograft model; type: in vivo, mice; conditions: for T/C / Tumor volume change: day 20
Experimental: as §1, §2, §3

MAXF 1162 = experiment: clonogenic (soft agar colony formation) assay, primary breast tumor; type: cell-based, human
MAXF 583 = experiment: as above; type: cell-based, human
[4] = test system: human breast cancer explants; experiment: clonogenic assay, six human breast cancer explants (summary values); type: cell-based

Question: What does the source list for `CCNC(=O)c1noc(-c2cc(C(C)C)c(O)cc2O)c1-c1ccc(CN2CCOCC2)cc1` [NVP-AUY922]?
Answer: IC70 (colony formation) (MAXF 401): 295 nM; IC50 (MAXF 401; Homo sapiens, MAXF401): 78 nM; IC70 (colony formation) (MAXF 1322): 48 nM; IC50 (MAXF 1322; Homo sapiens): 29 nM; IC70 (colony formation) (MAXF 574): >10,000 nM; IC50 (MAXF 574; Homo sapiens): > 10000 nM; GI50 (BT20): 4 ± 1.4 nM; GI50 (MDA-MB-468): 6.3 ± 2.6 nM; GI50 (MDA-MB-157): 126 ± 37 nM; phospho-AKT levels (phospho-AKT (Ser473); single dose 30 mg/kg i.v.): reductions in phospho-AKT levels; phospho-AKT levels (phospho-AKT (Ser473); single i.v. dose 25 mg/kg, tumors dissected 6 hours later): reduction in phospho-AKT levels; HSP70 staining intensity, recovery (HSP70): gradually returned to baseline over one week; time point of peak HSP70 staining intensity (HSP70): 24 h; HSP70 staining intensity (HSP70; 6 hours after administration): strongly increased HSP70 staining; GI50 (BT-474): 3.1 ± 1.4 nM; body weights compared with vehicle ([1]; single i.v. administration, 17 or 25 mg/kg): did not affect body weights; body weight ([1]; three times per week i.v., all dose levels (10, 30, 50 mg/kg)): significant body weight loss; IC50 (HSP90α): […]; GI50 (MCF-7): 8.8 ± 1.8 nM; GI50 (SkBr3): 3.3 ± 0.9 nM; GI50 ([2]; seven cell lines, read-out: GI50 values, range over human breast cancer cell lines): 3 to 126 nM; GI50 ([2]; six of the seven breast cancer cell lines, read-out: average GI50 value): 5.4 nM; T/C ([3]; 8.3 mg/kg once per week): 95 percentage; Tumor volume change ([3]; 8.3 mg/kg once per week): 252 ± 73 cubic millimeters; T/C ([3]; 17 mg/kg once per week): 72 percentage; Tumor volume change ([3]; 17 mg/kg once per week): 191 ± 61 cubic millimeters; T/C ([3]; 25 mg/kg once per week): 12 percentage; Tumor volume change ([3]; 25 mg/kg once per week): 32 ± 15^a cubic millimeters; T/C ([3]; 41 mg/kg once per week): 3 percentage; Tumor volume change ([3]; 41 mg/kg once per week): 9 ± 13^a cubic millimeters; T/C ([3]; 58 mg/kg once per week): 8 percentage; Tumor volume change ([3]; 58 mg/kg once per week): 22 ± 26^a cubic millimeters; tumor response ([3]; once per week i.v., 8.3 to 17 mg/kg): did not result in a significant effect on tumor growth; tumor response ([3]; once per week i.v., 25 to 58 mg/kg): highly efficacious; tumor growth ([3]; single i.v. dose 17 mg/kg): indication of retarded tumor growth; time without significant tumor growth after administration ([3]; single i.v. dose 25 mg/kg): […]; tumor size at end corresponds to control tumor size this much earlier ([3]; single i.v. dose 25 mg/kg): approximately 10 days; tumor size versus control group at the end of the experiment ([3]; single i.v. dose 25 mg/kg, 21 days, P < 0.05): statistically significantly smaller; tumor response ([3]; three times per week i.v., 10 mg/kg): did not result in a significant effect on tumor growth; tumor response ([3]; three times per week i.v., 30 and 50 mg/kg): tumor regression; IC70 (colony formation) (MAXF 1162): 505 nM; IC50 (MAXF 1162; Homo sapiens): 304 nM; IC70 (colony formation) (MAXF 583): 569 nM; IC50 (MAXF 583; Homo sapiens): 333 nM; GI50 ([4]; Homo sapiens, one highly resistant tumor explant, highest concentration evaluated, read-out: GI50): > 10000 nM; average GI70 ([4]; five out of the six human breast cancer explants): 379 nM; GI50 ([4]; five out of the six human breast cancer explants, read-out: average GI50): 191 nM
